According to patent US20110028463A1, “AMIDE COMPOUNDS” (Astellas Pharma Inc., priority 2007, published 2011):

Each compound was assayed against T1, rat EP4 receptor (Rattus norvegicus, UniProt P43114) (assay: Evaluation test on rat EP4 receptor affinity ([3H]PGE2 binding assay)). Settings: [3H]PGE2 0.3 nM; membrane fraction of HEK293 cells expressing rat EP4; room temperature, 1 hour.
T1 construct: expressed in transfected cells; host or cells: HEK293
Description: Evaluation Test on Rat EP4 Receptor Affinity
Cell Culture and Transfection
Using a 10 cm collagen-coated dish (Asahi Glass), HEK293 cells were cultured in a D-MEM culture medium, the culture medium was removed at a confluence (90 to 100% density state) and washed with a phosphate-buffered saline (PBS), and then the cells were detached with N,N,N′,N′-tetrakis(carboxymethyl)ethylenediamine (EDTA). The number of the cells were counted and seeded on a 15 cm collagen-coated dish to a confluence of 70%. The next day, to an Opti-MEM culture medium at 1.2 mL/dish was added Lipofectamine 2000 (Invitrogen) at 60 μL/dish, followed by being left to stand at room temperature for 5 minutes. A plasmid in which a rat EP4 (sequence number 1) had been inserted into a TA cloning site of pcDNA3.1-V5-His-topo was added thereto at 15 μg/dish. After leaving it to stand at room temperature for 30 minutes, the resultant was added to the dish and cultured for 20 to 24 hours. The cell culture was carried out in a CO2 incubator (37° C., 5% CO2).
Preparation of Membrane Fraction
The culture medium was removed by suction, 10 mL of cooled PBS was added thereto per 15 cm dish, and the cells were scraped using a cell scraper (Sumitomo Bakelite). After washing with cooled PBS (1,200 rpm, 4° C., 5 min), and then suspended in 6 mL of cooled 20 mM Tris-HCl (pH 7.4; Nakalai Tesque Inc., including 5 mM EDTA (Nakalai Tesque Inc.) per dish and homogenized using a Polytron, the homogenate was centrifuged (26,000 rpm, 20 min, 4° C.). The obtained precipitate was resuspended in cooled 20 mM Tris-HCl and homogenized again using a Polytron, and the homogenate was centrifuged (26,000 rpm, 20 min, 4° C.). The obtained precipitate was resuspended in 50 mM HEPES (pH 7.5; Dojindo Laboratories) to 1 mL per dish, homogenized using a Polytron, and freeze-stored at −80° C. as a membrane fraction. At this time, a part thereof was used for the measurement of the protein concentration. Measurement of the protein concentration was carried out using a Bio-Rad Protein assay kit (Bio-Rad Laboratories) in accordance with the appended standard Protocol in duplicate.
[^3H] PGE2 μL (final concentration 0.3 nM; Perkin Elmer), 100 μL (20 μg/well) of a membrane fraction prepared from the rat EP4 expression cell and 50 μL of a test compound were mixed in a 96-well microplate (Sumitomo Bakelite), incubated at room temperature for 1 hour, filtered by suction on a UniFilter-96 GF/B (Perkin Elmer) using a FilterMate Harvester (Perkin Elmer), and then washed three times with 300 μL/well of a cooled assay buffer. Dilution of [^3H]PGE2 and the membrane fraction was carried out using an assay buffer (50 mM HEPES, 10 mM MgCl2), and dilution of the test compound and the unlabeled PGE2 was carried out using DMSO and the assay buffer. Further, in the case a human serum albumin (HSA) is added, dilution was carried out using an assay buffer containing 4% HSA (final concentration 1%; Sigma). The UniFilter-96 GF/B was treated by preliminarily washing twice with 200 μL/well of a cooled assay buffer. The UniFilter-96 GF/B after filtration was dried in a dryer overnight, 50 μL/well of MicroScint20 (Perkin Elmer) was added thereto, and then the radioactivity was measured using a TopCount (Perkin Elmer). For measurement of the non-specific binding, an unlabeled PGE2 (final concentration 1 μM; Cayman) was added. All of the measurements were carried out in duplicate, and the specific binding amount was determined by subtracting the non-specific binding amount from the total binding amount.
According to Test method as above, the rat EP4 receptor affinity (Ki) of the compound of the formula (I) was measured. Ex represents Example Compound number.

T1 sequence (P43114 whole entry): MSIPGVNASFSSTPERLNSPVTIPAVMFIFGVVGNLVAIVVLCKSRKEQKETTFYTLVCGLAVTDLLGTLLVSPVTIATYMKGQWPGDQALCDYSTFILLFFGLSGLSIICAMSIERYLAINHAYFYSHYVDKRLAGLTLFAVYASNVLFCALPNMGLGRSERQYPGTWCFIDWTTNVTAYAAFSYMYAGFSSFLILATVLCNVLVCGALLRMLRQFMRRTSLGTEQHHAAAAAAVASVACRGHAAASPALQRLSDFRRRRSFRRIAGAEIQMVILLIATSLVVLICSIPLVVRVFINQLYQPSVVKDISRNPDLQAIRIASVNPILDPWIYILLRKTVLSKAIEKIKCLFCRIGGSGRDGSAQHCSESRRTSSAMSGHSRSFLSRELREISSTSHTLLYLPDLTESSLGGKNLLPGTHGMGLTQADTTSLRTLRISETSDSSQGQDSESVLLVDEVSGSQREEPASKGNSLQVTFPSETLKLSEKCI

| Structure (SMILES) | Ki [nM] |
| --- | --- |
| O=C(O)c1ccc2c(ccn2NC(=O)c2ccccc2Cc2ccc(Cl)cc2)c1 [Example 4, 1-{[2-(4-chlorobenzyl)benzoyl]amino}-1H-indole-5-carboxylic acid] | 7.5 |
| C[C@H](NC(=O)c1sccc1N(C)Cc1ccc(Cl)cc1)c1ccc(C(=O)O)cc1 [Example 7] | 16 |
| CN(NC(=O)c1cccc2ccn(Cc3ccc(Cl)cc3)c12)c1ccc(C(=O)O)cc1 [Example 8] | 0.8 |
| C[C@H](NC(=O)c1cccc2ccn(Cc3ccc(Cl)cc3)c12)c1ccc(-c2noc(=O)[nH]2)cc1 [Example 15] | 3.5 |
| C[C@H](NC(=O)c1cc(Cl)cc2ccn(Cc3ccc(Cl)cc3)c12)c1ccc(C(=O)O)cc1 [Example 21] | 0.51 |
| C[C@H](NC(=O)c1cccc2c1N(Cc1ccc(Cl)cc1)CC2)c1ccc(C(=O)O)cc1 [Example 22] | 0.79 |
| CN(NC(=O)c1cc(Cl)cc2ccn(Cc3ccc(Cl)cc3)c12)c1ccc(C(=O)O)cc1 [Example 31] | 0.83 |
| C[C@H](NC(=O)c1cc2ccccc2n1Cc1ccc(Cl)cc1)c1ccc(C(=O)O)cc1 [Example 37] | 9.9 |
| C[C@H](NC(=O)c1cccn1Cc1ccc(Cl)cc1)c1ccc(C(=O)O)cc1 [Example 39] | 37 |
| C[C@H](NC(=O)c1cccc2nc(Nc3ccc(Cl)cc3)oc12)c1ccc(C(=O)O)cc1 [Example 46] | 11 |
| C[C@H](NC(=O)c1cccc2cnn(Cc3ccc(Cl)cc3)c12)c1ccc(C(=O)O)cc1 [Example 47] | 5.5 |
| C[C@H](NC(=O)c1ccccc1-n1ccc2cc(Cl)ccc21)c1ccc(C(=O)O)cc1 [Example 50] | 15 |
| C[C@H](NC(=O)c1cccc2ccn(Cc3ccc4ccccc4n3)c12)c1ccc(C(=O)O)cc1 [Example 57] | 1.6 |
| CC(NC(=O)c1cccc2ccn(Cc3ccc(Cl)cc3)c12)[C@H]1CC[C@H](C(=O)O)CC1 (stereo partly shown) [Example 61] | 12 |
| O=C(NCC1CCC(C(=O)O)CC1)c1cccc2ccn(Cc3ccc(Cl)cc3)c12 (stereo not shown) [Example 110] | 12 |
| O=C(O)c1ccc(CNC(=O)c2cccc3ccn(Cc4ccc(Cl)cc4)c23)cc1 [Example 111] | 2.6 |
